Key:
[1] = target: T1, p38 MAP kinase (Homo sapiens, UniProt Q16539); assay: p38 (MAP) kinase in vitro assay; assay type: biochemical; settings: transfer of γ-phosphate from γ-33P-ATP to Myelin Basic Protein; phosphorylated recombinant p38 MAP kinase
T1 construct: made in house; host or cells: E. coli (co-expressed with SEK-1 and MEKK)
Protocol: This example illustrates a p38 (MAP) kinase in vitro assay useful for evaluating the compounds of the invention.
The p38 MAP kinase inhibitory activity of compounds of this invention in vitro was determined by measuring the transfer of the γ-phosphate from γ-^33P-ATP by p-38 kinase to Myelin Basic Protein (MBP), using a minor modification of the method described in Ahn, et al., J. Biol. Chem. 266:4220-4227 (1991).
The phosphorylated form of the recombinant p38 MAP kinase was co-expressed with SEK-1 and MEKK in E. Coli (see, Khokhlatchev, et al., J. Biol. Chem. 272:11057-11062 (1997)) and then purified by affinity chromatography using a Nickel column.
The phosphorylated p38 MAP kinase was diluted in kinase buffer (20 mM 3-(N-morpholino)propanesulfonic acid, pH 7.2, 25 mM β-glycerol phosphate, 5 mM ethylene glycol-bis(beta-aminoethyl ether)-N,N,N′,N′-tetraacetic acid, 1 mM sodium ortho-vanadate, 1 mM dithiothreitol, 40 mM magnesium chloride). Test compound dissolved in DMSO or only DMSO (control) was added and the samples were incubated for 10 min at 30° C. The kinase reaction was initiated by the addition of a substrate cocktail containing MBP and γ-^33P-ATP. […] The phosphorylated MBP was then separated from the residual γ-^33P-ATP using a phosphocellulose membrane (Millipore, Bedfrod, Mass.) and quantitated using a scintillation counter (Packard, Meriden, Conn.).

T1 sequence (Q16539 whole entry): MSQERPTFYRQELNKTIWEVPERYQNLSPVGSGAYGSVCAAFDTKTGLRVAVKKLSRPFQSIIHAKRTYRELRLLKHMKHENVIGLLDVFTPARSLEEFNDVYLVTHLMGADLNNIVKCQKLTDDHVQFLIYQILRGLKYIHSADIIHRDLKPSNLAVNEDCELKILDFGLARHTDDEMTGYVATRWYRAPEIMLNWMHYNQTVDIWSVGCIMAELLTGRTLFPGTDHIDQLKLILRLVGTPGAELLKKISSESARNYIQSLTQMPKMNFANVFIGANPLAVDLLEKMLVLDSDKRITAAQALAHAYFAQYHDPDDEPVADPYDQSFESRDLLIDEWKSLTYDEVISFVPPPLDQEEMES

IC50 [1]: ~165 nM | melting point: 143.7 to 145 °C
Compound: CC(C)Oc1n[nH]c2nc(Oc3ccc(F)cc3F)ncc12 [Compound 1, 6-(2,4-Difluoro-phenoxy)-3-isopropoxy-1H-pyrazolo[3,4-d]pyrimidine]

Source: US7563800B2, “Substituted pyrazolo[3,4-D]pyrimidines as p38 map kinase inhibitors” (Roche Palo Alto LLC, priority 2006, dated 2009)
